Data: publication PMC3234597, “Two Panels of Steroid Receptor Luciferase Reporter Cell Lines for Compound Profiling” (Combinatorial Chemistry & High Throughput Screening, 2011)
Structures can show the parent of a compound that is named as a salt. Where two headings read alike, the source gives them in different places.

What was measured:
Assay type in all cases: cell-based
human GR (full-length) [1] = target: T1, human GR (full-length) (Homo sapiens, UniProt P04150); experiment: U2OS-GR/MMTV luciferase reporter cell line (full-length receptor)
T1 construct: expression vectors encoding full-length steroid receptors: pcDNA3-hAR and pcDNA3-hGR; host or cells: U2OS
T1 sequence (P04150 1-777): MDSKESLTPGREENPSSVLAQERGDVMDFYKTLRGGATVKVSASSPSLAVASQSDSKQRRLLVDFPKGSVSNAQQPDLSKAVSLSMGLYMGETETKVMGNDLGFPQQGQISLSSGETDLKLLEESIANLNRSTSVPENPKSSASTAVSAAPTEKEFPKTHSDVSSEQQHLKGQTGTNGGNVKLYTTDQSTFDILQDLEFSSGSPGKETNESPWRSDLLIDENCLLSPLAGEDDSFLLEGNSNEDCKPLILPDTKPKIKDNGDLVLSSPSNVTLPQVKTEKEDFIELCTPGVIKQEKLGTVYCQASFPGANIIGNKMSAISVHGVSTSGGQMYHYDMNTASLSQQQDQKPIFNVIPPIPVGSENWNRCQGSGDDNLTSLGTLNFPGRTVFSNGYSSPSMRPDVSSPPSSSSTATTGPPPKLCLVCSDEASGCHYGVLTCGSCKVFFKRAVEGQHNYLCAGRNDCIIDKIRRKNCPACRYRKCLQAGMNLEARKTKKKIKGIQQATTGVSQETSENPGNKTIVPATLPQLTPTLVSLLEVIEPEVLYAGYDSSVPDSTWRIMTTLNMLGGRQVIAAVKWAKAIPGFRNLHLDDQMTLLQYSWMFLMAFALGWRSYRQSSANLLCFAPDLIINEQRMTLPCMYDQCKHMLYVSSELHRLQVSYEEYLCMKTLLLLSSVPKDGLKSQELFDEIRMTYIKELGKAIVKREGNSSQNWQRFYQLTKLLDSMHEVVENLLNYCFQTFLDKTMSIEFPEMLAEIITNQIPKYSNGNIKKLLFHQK

human MR (full-length) = target: T2, human MR (full-length) (Homo sapiens, UniProt P08235); experiment: U2OS-MR/MMTV luciferase reporter cell line (full-length receptor)
T2 construct: expression vectors encoding full-length steroid receptors: pcDNA3-hAR, pcDNA3-hGR and pcDNA3-hMR; expressed in transfected cells; host or cells: U2OS
T2 sequence (P08235 1-984): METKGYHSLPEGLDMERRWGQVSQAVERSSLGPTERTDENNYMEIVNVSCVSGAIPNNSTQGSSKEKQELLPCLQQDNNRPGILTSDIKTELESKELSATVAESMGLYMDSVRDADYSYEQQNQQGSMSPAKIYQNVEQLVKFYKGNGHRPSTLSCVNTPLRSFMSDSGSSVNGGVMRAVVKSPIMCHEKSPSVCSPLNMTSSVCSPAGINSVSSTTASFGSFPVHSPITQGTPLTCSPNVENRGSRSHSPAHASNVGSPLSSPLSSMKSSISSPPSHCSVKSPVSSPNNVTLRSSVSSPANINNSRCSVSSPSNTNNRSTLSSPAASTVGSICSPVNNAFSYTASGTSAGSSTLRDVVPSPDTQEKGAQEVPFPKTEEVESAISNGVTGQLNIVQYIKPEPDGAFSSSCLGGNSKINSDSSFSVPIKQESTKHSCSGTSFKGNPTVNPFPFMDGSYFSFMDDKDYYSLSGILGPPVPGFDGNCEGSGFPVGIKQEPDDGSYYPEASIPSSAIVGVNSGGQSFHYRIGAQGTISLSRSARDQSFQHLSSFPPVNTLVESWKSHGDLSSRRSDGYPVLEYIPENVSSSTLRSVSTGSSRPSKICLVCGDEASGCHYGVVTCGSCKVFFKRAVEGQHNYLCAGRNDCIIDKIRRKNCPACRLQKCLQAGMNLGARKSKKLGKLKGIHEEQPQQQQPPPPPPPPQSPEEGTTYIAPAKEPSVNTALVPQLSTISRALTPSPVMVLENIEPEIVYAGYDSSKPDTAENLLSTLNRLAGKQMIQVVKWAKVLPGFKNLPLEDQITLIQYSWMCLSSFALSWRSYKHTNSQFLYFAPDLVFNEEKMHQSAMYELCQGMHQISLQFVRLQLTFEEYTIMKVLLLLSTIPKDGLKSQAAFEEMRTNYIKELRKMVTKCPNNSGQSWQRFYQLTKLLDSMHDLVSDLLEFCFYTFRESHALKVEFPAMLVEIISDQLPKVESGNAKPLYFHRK

GR-LBD fused to Gal4-DBD = target: T3, GR-LBD fused to Gal4-DBD (Homo sapiens, UniProt P04150); experiment: U2OS-GR-LBD/9xGal4UAS luciferase reporter cell line
T3 construct: expressed in transfected cells; host or cells: U2OS
T3 sequence (P04150 524-758 limits assumed): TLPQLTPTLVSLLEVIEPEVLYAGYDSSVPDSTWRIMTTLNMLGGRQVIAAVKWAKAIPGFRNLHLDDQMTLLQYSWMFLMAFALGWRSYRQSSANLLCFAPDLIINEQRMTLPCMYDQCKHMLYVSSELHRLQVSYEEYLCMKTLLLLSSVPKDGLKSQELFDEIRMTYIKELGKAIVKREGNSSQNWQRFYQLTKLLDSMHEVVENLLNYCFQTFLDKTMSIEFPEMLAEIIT

human GR (full-length) [2] = target: T1, human GR (full-length); experiment: U2OS-GR/3xGRE luciferase reporter cell line (full-length receptor)
MR-LBD fused to Gal4-DBD = target: T4, MR-LBD fused to Gal4-DBD (Homo sapiens, UniProt P08235); experiment: U2OS-MR-LBD/9xGal4UAS luciferase reporter cell line
T4 construct: MR-LBD was cloned by RT-PCR from total RNA isolated from HEK293 cells; expressed in transfected cells; host or cells: U2OS
T4 sequence (P08235 726-964 limits assumed): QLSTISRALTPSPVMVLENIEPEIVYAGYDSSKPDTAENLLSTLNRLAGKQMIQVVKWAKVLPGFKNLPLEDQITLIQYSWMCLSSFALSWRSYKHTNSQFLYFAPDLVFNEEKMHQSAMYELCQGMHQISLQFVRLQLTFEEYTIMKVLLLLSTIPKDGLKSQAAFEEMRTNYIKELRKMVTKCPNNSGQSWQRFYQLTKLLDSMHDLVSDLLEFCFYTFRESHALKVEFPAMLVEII

[3] = target: T5, ERβ-LBD fused to Gal4-DBD (Homo sapiens, UniProt Q92731); experiment: U2OS-ERβ-LBD/9xGal4UAS luciferase reporter cell line; conditions: read-out: Log EC50 (converted)
T5 construct: region comprising ERβ-LBD and a piece of the hinge region; expressed in transfected cells; host or cells: U2OS

PR-LBD fused to Gal4-DBD = target: T6, PR-LBD fused to Gal4-DBD (Homo sapiens, UniProt P06401); experiment: U2OS-PR-LBD/9xGal4UAS luciferase reporter cell line
T6 construct: PR-LBD region was PCR amplified using the following primer combination; host or cells: U2OS
T6 sequence (P06401 679-913 limits assumed): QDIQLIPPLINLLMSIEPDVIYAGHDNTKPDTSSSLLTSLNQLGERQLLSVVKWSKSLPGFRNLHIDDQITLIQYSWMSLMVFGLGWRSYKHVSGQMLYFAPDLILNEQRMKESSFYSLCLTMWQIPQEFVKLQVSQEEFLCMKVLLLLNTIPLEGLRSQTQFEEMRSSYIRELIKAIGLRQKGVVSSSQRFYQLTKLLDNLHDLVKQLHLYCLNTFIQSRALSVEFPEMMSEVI

human ERβ (full-length) = target: T7, human ERβ (full-length) (Homo sapiens, UniProt Q92731); experiment: U2OS-ERβ/3xERE luciferase reporter cell line (full-length receptor); conditions: read-out: Log EC50 (converted)
T7 construct: expression vectors encoding full-length steroid receptors: pcDNA3-hERα and pcDNA3-ERβ; expressed in transfected cells; host or cells: U2OS
T7 sequence (Q92731 whole entry): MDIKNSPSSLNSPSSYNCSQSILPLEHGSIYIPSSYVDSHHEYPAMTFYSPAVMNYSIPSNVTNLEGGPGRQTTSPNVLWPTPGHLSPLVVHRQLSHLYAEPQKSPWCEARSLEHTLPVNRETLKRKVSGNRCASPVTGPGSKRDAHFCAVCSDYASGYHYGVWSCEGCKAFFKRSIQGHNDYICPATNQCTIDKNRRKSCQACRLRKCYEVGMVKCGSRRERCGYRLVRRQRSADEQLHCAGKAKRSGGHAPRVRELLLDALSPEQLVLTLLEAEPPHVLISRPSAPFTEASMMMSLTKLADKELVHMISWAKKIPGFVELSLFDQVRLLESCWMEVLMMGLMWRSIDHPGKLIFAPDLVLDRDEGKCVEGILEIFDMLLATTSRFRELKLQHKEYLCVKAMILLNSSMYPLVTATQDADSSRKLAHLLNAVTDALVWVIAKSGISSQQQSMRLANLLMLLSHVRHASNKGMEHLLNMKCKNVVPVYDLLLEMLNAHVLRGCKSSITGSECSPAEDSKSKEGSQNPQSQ

T5 sequence (Q92731 264-498 limits assumed): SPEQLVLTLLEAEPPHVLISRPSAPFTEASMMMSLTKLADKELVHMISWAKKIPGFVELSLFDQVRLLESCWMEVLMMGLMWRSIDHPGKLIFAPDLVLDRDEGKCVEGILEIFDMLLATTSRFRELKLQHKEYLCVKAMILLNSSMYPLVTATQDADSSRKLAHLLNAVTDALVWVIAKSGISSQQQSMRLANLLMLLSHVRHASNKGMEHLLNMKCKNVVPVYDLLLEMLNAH

## CC/C(=C(\c1ccccc1)c1ccc(OCCN(C)C)cc1)c1ccccc1 [Tamoxifen citrate, tamoxifen citrate]
Human GR (full-length) [1]; read-out: Log EC50 (converted)
  EC50: > 10 µM
Human MR (full-length); read-out: Log EC50 (converted)
  EC50: > 10 µM
GR-LBD fused to Gal4-DBD; read-out: Log EC50 (converted)
  EC50: > 10 µM
Human GR (full-length) [2]; read-out: Log EC50 (converted)
  EC50: > 10 µM
MR-LBD fused to Gal4-DBD; read-out: Log EC50 (converted)
  EC50: > 10 µM

## CC1(C)NC(=O)N(c2ccc([N+](=O)[O-])c(C(F)(F)F)c2)C1=O [Nilutamide, nilutamide]
[3]
  EC50: > 10 µM
PR-LBD fused to Gal4-DBD; antagonist mode, PR-LBD/9xGal4UAS, log10 of molar IC50, mean ± SEM, read-out: Log IC50 (converted)
  IC50: > 10 µM
PR-LBD fused to Gal4-DBD; read-out: Log EC50 (converted)
  EC50: > 10 µM
Human MR (full-length); read-out: Log EC50 (converted)
  EC50: > 10 µM
MR-LBD fused to Gal4-DBD; read-out: Log EC50 (converted)
  EC50: > 10 µM
Human ERβ (full-length)
  EC50: > 10 µM

## 4-hydroxy-tamoxifen
Human GR (full-length) [1]; agonist mode, GR/MMTV, 20 h, log10 of molar EC50, mean ± SEM
  Log EC50: > -5.00 M
Human GR (full-length) [1]; antagonist mode, GR/MMTV, in the presence of 5 nM dexamethasone, log10 of molar IC50, mean ± SEM
  Log IC50: > -5.00 M
Human MR (full-length); agonist mode, MR/MMTV, 20 h, log10 of molar EC50, mean ± SEM
  Log EC50: > -5.00 M
Human MR (full-length); antagonist mode, MR/MMTV, in the presence of 1 nM aldosterone, log10 of molar IC50, mean ± SEM
  Log IC50: > -5.00 M
GR-LBD fused to Gal4-DBD; agonist mode, GR-LBD/9xGal4UAS, 20 h, log10 of molar EC50, mean ± SEM
  Log EC50: > -5.00 M
GR-LBD fused to Gal4-DBD; antagonist mode, GR-LBD/9xGal4UAS, in the presence of 5 nM dexamethasone, log10 of molar IC50, mean ± SEM
  Log IC50: > -5.00 M
Human GR (full-length) [2]; agonist mode, GR/3xGRE, 20 h, log10 of molar EC50, mean ± SEM
  Log EC50: > -5.00 M
Human GR (full-length) [2]; antagonist mode, GR/3xGRE, in the presence of 5 nM dexamethasone, log10 of molar IC50, mean ± SEM
  Log IC50: > -5.00 M
MR-LBD fused to Gal4-DBD; agonist mode, MR-LBD/9xGal4UAS, 20 h, log10 of molar EC50, mean ± SEM
  Log EC50: > -5.00 M
MR-LBD fused to Gal4-DBD; antagonist mode, MR-LBD/9xGal4UAS, in the presence of 1 nM aldosterone, log10 of molar IC50, mean ± SEM
  Log IC50: > -5.00 M

## C[C@]12CCC(=O)C[C@@H]1CC[C@@H]1[C@@H]2CC[C@]2(C)[C@@H](O)CC[C@@H]12 [Dihydrotestosterone, 5α-androstan-17β-ol-3-one]
PR-LBD fused to Gal4-DBD
  EC50: 0.398 µM
  IC50: > 10 µM
Human MR (full-length)
  EC50: > 10 µM
MR-LBD fused to Gal4-DBD
  EC50: > 10 µM

## O=C(c1ccc(OCCN2CCCCC2)cc1)c1c(-c2ccc(O)cc2)sc2cc(O)ccc12 [Raloxifene hydrochloride, raloxifene hydrochloride]
Human MR (full-length); read-out: Log EC50 (converted)
  EC50: > 10 µM
MR-LBD fused to Gal4-DBD; read-out: Log EC50 (converted)
  EC50: > 10 µM

## CC#C[C@]1(O)CC[C@H]2[C@@H]3CCC4=CC(=O)CCC4=C3[C@@H](c3ccc(N(C)C)cc3)C[C@@]21C [Mifepristone (RU486), mifepristone]
Human GR (full-length) [1]; full-length GR reporter cell line U2OS-GR/MMTV
  activity profile in words: partial agonist/full antagonist
GR-LBD fused to Gal4-DBD; GR LBD format (U2OS-GR-LBD/9xGal4UAS)
  activity profile in words: very potent pure full antagonist
Human GR (full-length) [2]; full-length GR reporter cell line U2OS-GR/3xGRE
  activity profile in words: partial agonist/full antagonist
